According to publication PMC4834746 (Anesthesiology and Pain Medicine, 2016):
“Also recorded” adds a separate entry of the source. Structures can show the parent of a compound that is named as a salt. Where two headings read alike, the source gives them in different places.

What was measured:
[1] = type: in vivo, rat; conditions: for half-life: t1/2, rat plasma
[2] = type: in vivo, rat
[3] = AM404 concentration in rat plasma after oral administration of acetaminophen; type: in vivo; conditions: oral 20 mg/kg acetaminophen, data not shown
[4] = male, Crl:CD(SD), rat, plasma, po, 20 mg/kg
[5] = male, Crl:CD(SD), rat, plasma, po, 20 mg/kg, oral 20 mg/kg acetaminophen, mean
[6] = rat plasma, oral 20 mg/kg acetaminophen, mean
[7] = rat plasma, oral 20 mg/kg acetaminophen, mean, 20 mg/kg
[8] = male, Crl:CD(SD), rat, brain, po, 20 mg/kg

Row | AUC(0-t) [1, 4] [ng·h/mL] | Cmax [1, 4] [ng/mL] | k el [1, 4] [s⁻¹] | half-life [1, 5] [min] | AUC0-2h [1, 6] [µg·h/g] | Cmax [1, 6] [µg/g] | Kel [1, 6] [h⁻¹] | tmax [1, 6] [min] | t1/2 [1, 7] [min] | SMILES | t1/2 [1, 6] [min] | other results
1 | 8960 | 15800 | 0.000644 | 17.9 | – | – | – | – | – | CC(=O)Nc1ccc(O)cc1 [APAP, Acetaminophen, reference compound] | – | –
2 | – | – | – | – | 0.251 | 0.258 | 1.44 | 30 | – | CC(=O)Nc1ccc(O)c(SC[C@H](N)C(=O)O)c1 [Sys, Acetaminophen cysteine] | 29 | –
3 | 7990 | 9300 | 0.000533 | 25 | – | – | – | – | 21.7 | CC(=O)Nc1ccc(O[C@@H]2O[C@H](C(=O)O)[C@@H](O)[C@H](O)[C@H]2O)cc1 [Glu, acetaminophen glucuronide] | – | tmax [1, 4]: 15 min
4 | – | – | – | – | 22.2 | 21.7 | 1.67 | 15 | 25 | CC(=O)Nc1ccc(OS(=O)(=O)O)cc1 [Sul, acetaminophen sulfate] | – | –
5 | – | – | – | – | – | – | – | – | – | CCCCC/C=C\C/C=C\C/C=C\C/C=C\CCCC(=O)Nc1ccc(O)cc1 [AM404, N-(4-hydroxyphenyl) arachidonamide] | – | conversion rate of acetaminophen to AM404 ([2]; calculated using AUC0-2h, oral 20 mg/kg acetaminophen, rat): 0.0013%; half-life [2, 8]: 18.3 min; k el [2, 8]: 0.000631 s⁻¹; AUC0-2h ([2]; rat brain, oral 20 mg/kg acetaminophen, mean): 117 pg·h/g; concentration of AM404 in plasma [3]: undetectable; also recorded: unable to detect

Row | SMILES | AUC(0-t) [1, 4] [ng·h/mL] | Cmax [1, 4] [ng/mL] | k el [1, 4] [s⁻¹] | half-life [1, 5] [min] | AUC0-2h [1, 6] [µg·h/g] | Cmax [1, 6] [µg/g] | Kel [1, 6] [h⁻¹] | tmax [1, 6] [min] | t1/2 [1, 7] [min] | t1/2 [1, 6] [min] | other results
6 | CC(=O)Nc1ccc(O)c(SC[C@H](NC(C)=O)C(=O)O)c1 [Mer, acetaminophen mercapturate acid] | – | – | – | – | 0.167 | 0.154 | 0.890 | 30 | – | 46.7 | –
